Measured values from patent US8729031B2, “Compounds” (priority 2009, dated 2014).
Converted amounts (≈) assume the structure as drawn.

Columns and labels:
[1] = system: Staphylococcus aureus methicillin resistant ATCC 33591; assay: Mouse bacteraemia model; assay type: in vivo
Procedure: Groups of 6 male CD-1 (Crl.) derived mice weighing 24±2 g were used. Mice were inoculated intraperitoneally (IP) with an LD90-100 of Staphylococcus aureus methicillin resistant ATCC 33591 (1.1×10^7CFU/mouse) in 0.5 mL of BHI broth containing 5% mucin. The compound of example 1a and vancomycin were dissolved in 15% HPbetaCD/4.4% glucose/0.5 mM KH2PO4, pH 5.0 at doses of 1, 3, 5, 10 and 20 mg/Kg and were administered subcutaneously (SC) to test animals at 0, 2 and 24 hour(s) after bacteria challenge. The dosing volume was 5 mL/Kg. Mortality was recorded once daily for 7 days. The ED50 for each compound was determined by nonlinear regression.

[2] = system: Methicillin Resistant Staphylococcus aureus (MRSA, ATCC 33591); assay: Neutropaenic mouse thigh infection model; assay type: in vivo; conditions: for antimicrobial effect in thigh infection: IV at 5, 10, 20, 30 and 40 mg/Kg×2
Procedure: In vivo efficacy of compounds of the present invention in the treatment of bacterial tissue infections was evaluated using a neutropaenic mouse thigh model. Groups of 6 male ICR mice weighing 24±2 g were used. Test animals were immunosuppressed by 2 intraperitoneal injections of cyclophosphamide, the first at 150 mg/Kg 4 days before infection (day-4) and the second at 100 mg/Kg 1 day before infection (day-1). On day 0, individual animals were inoculated intramuscularly (IM) into the right thigh of test animals with 1.15×10^5 CFU/mouse of Methicillin Resistant Staphylococcus aureus (MRSA, ATCC 33591) suspended in 100 μL of sterile PBS, pH 7.4. Vehicle and test substances were administered intravenously (IV) at a dose volume of 8 mL/Kg, 2 and 14 hours after thigh infection. Example 1a (Compound I) and vancomycin were dissolved in 15% hydroxypropyl-β-cyclodextrin/4.4% glucose/1 mM potassium phosphate buffer, pH 7.0 and administered at doses of 5, 10, 20, 30 and 40 mg/Kg. At 26 hours after inoculation, muscle of the right thigh of each test mouse was harvested. From an additional group with no treatment, muscle of the right thigh was harvested at 2 hours after inoculation for the basal CFU determination. The removed muscle tissues were then homogenized in 3-4 mL of PBS, pH 7.4 with a ceramic mortar. Homogenates of 0.1 mL were used for serial 10-fold dilutions and plated on Mueller Hinton broth in 1.5% Bacto agar for CFU determination.

[3] = In vivo plasma half-life in mice; conditions: mouse, 29.76 mg/kg, male CD-1 mice, IV, 9.3 mL/Kg of 3.2 mg/mL solution
Procedure: The in vivo half-life of Example 1a in mice was determined by measurement of its plasma concentrations at various time points following IV dosing. 18 male CD-1 mice aged 7-9 weeks were dosed IV with a 9.3 mL/Kg dose of a 3.2 mg/mL solution of Example 1a in 15% hydroxyl-propyl-β-cyclodextrin/4.4% glucose/1 mM potassium phosphate (pH=7.6). Plasma samples were obtained at 10, 20, 30, 60, 120 and 240 min post-dose, sampling from 3 animals at each time point. Concentrations of Example 1a in plasma were determined by LC-MS quantification.

S. aureus SH1000 = assay type: cell-based; conditions: S. aureus SH1000
Procedure: (§1) Susceptibility testing with the exception of Streptococcus pneumoniae was performed by two-fold serial dilutions in Mueller Hinton Broth supplemented with 50 μg/mL Ca^2+. Susceptibility testing of S. pneumoniae was performed by two-fold serial dilutions in Brain-Heart-Infusion Broth supplemented with 50 μg/mL Ca^2+.

S. aureus R33 (MRSA) = assay type: cell-based; conditions: S. aureus R33 (MRSA)
Procedure: as §1

CN[C@H](CC(C)C)C(=O)N[C@H]1C(=O)N[C@@H](CC(N)=O)C(=O)N[C@H]2C(=O)N[C@H]3C(=O)N[C@H](C(=O)N[C@H](C(=O)O)c4cc(O)cc(O)c4-c4cc3ccc4O)[C@H](O)c3ccc(c(Cl)c3)Oc3cc2cc(c3O[C@@H]2O[C@H](CO)[C@@H](O)[C@H](O)[C@H]2O[C@H]2C[C@](C)(N)[C@H](O)[C@H](C)O2)Oc2ccc(cc2Cl)[C@H]1O [vancomycin, reference compound]
antimicrobial effect against S. aureus (MR) in mice ([1]; 3, 5, 10 and 20 mg/Kg×3, SC): significant antimicrobial effect | ED50 ([1]; Staphylococcus aureus, ATCC33591, SC at 0, 2 and 24 h after challenge, mortality over 7 days, nonlinear regression, read-out: estimated ED50): 3 mg/kg | antimicrobial effect in thigh infection [2]: significant antimicrobial effect | reductions of CFU/g ([2]; IV ×2 (2 and 14 h), 30 mg/kg and above, thigh muscle at 26 h): > 100 fold

CC[C@H](C)[C@@H]1NC(=O)[C@@H]2NC(=O)[C@H](CC(C)C)NC(=O)[C@H](NC(=O)[C@@H]3CSC[C@@H](N)C(=O)N[C@@H](CO)C(=O)NCC(=O)N[C@@H](Cc4c[nH]c5ccccc45)C(=O)N[C@@H](C(C)C)C(=O)N3)[C@H](C)SC[C@H](NC(=O)[C@H](CCC(=O)O)NC1=O)C(=O)NCC(=O)N[C@H]1C(=O)N[C@@H](CC(C)C)C(=O)N[C@@H](C(C)C)C(=O)N[C@@H](CS[C@H]2C)C(=O)N[C@@H](C)C(=O)N[C@H](C(=O)NCc2cc(Cl)cc(Cl)c2)CS[C@H]1C [Example 1a]
survival rate ([1]; 3 mg/Kg, SC): 100% | antimicrobial effect against S. aureus (MR) in mice ([1]; 3, 5, 10 and 20 mg/Kg×3, SC): significant antimicrobial effect | increase in survival rate ([1]; 3, 5, 10 and 20 mg/Kg×3, SC): at least 50% | estimated ED50 ([1]; SC at 0, 2 and 24 h after challenge, mortality over 7 days, nonlinear regression): 1.07 mg/kg | half-life [3]: ~2 h | antimicrobial effect in thigh infection [2]: significant antimicrobial effect | reduction in CFU/g ([2]; IV ×2 (2 and 14 h), 10 mg/kg and above, thigh muscle at 26 h): > 1000 fold

CC[C@H](C)[C@@H]1NC(=O)[C@@H]2NC(=O)[C@H](CC(C)C)NC(=O)[C@H](NC(=O)[C@@H]3CSC[C@@H](N)C(=O)N[C@@H](CO)C(=O)NCC(=O)N[C@@H](Cc4c[nH]c5ccccc45)C(=O)N[C@@H](C(C)C)C(=O)N3)[C@H](C)SC[C@H](NC(=O)[C@H](CCC(=O)O)NC1=O)C(=O)NCC(=O)N[C@H]1C(=O)N[C@@H](CC(C)C)C(=O)N[C@@H](C(C)C)C(=O)N[C@@H](CS[C@H]2C)C(=O)N[C@@H](C)C(=O)N[C@H](C(=O)NCCCCCCNCc2cc(Cl)cc(Cl)c2)CS[C@H]1C [Example 30, Deoxyactagardine B [6-(3′,5′-dichlorobenzylamino)-hexylamine]monocarboxamide]
MIC in μg/mL against strain S. aureus SH1000 (S. aureus SH1000): 4 µg/mL (≈ 1.88 µM) | MIC in μg/mL against strain S. aureus R33 (MRSA) (S. aureus R33 (MRSA)): 8 µg/mL (≈ 3.75 µM)
